# Source: ChEMBL document CHEMBL3992516, “Synthesis and SAR evaluation of novel thioridazine derivatives active against drug-resistant tuberculosis” (Eur J Med Chem, 2017)
# Activity calls are given as the source filed them. The rule behind the calls is not given here.
# Tests used:
# MRC5 = assay: Cytotoxicity against human MRC5 cells assessed as decrease in cell viability after 24 hrs by resazurin reduction assay; assay type: cell-based; conditions: MRC5, 24 h
# [1] = test system: Mycolicibacterium smegmatis; assay: Antimycobacterial activity against Mycobacterium smegmatis MC2 155 ATCC 700084 by microplate alamar blue assay; assay type: functional
# [2] = test system: Mycobacterium tuberculosis; assay: Antimycobacterial activity against Mycobacterium tuberculosis MC2 7000 by microplate alamar blue assay; assay type: functional
# J774 = assay: Cytotoxicity against mouse J774 cells assessed as decrease in cell viability after 24 hrs by resazurin reduction assay; assay type: cell-based; conditions: J774, 24 h
# [3] = test system: Mycobacterium tuberculosis; assay: Antimycobacterial activity against Mycobacterium tuberculosis H37Rv ATCC 27294 incubated for 7 days measured 24 hrs post incubation by resazurin microtiter assay; assay type: functional
# [4] = Selectivity index, ratio of IC50 for human MRC5 cells to MIC90 for drug-succeptible Mycobacterium tuberculosis CF73; assay type: toxicity; conditions: read-out: Selectivity Index
# [5] = test system: Mycobacterium tuberculosis; assay: Antimycobacterial activity against drug-succeptible Mycobacterium tuberculosis CF73 incubated for 7 days measured 24 hrs post incubation by resazurin microtiter assay; assay type: functional
# [6] = test system: Mycolicibacterium smegmatis; assay: Inhibition of efflux pump in Mycobacterium smegmatis assessed as increase in accumulation of ethidium bromide at 0.25 times MIC measured every min for 60 mins by fluorimetric method
Structure (SMILES),IC50 (MRC5) [µg/mL],MIC [1] [µg/mL],MIC [2] [µg/mL],IC50 (J774) [µg/mL],MIC90 [3] [µg/mL],selectivity ratio [4],MIC90 [5] [µg/mL],inhibition [6]
CN1CCCCC1CCN1c2ccccc2Sc2ccc(Cl)cc21 (stereo unspecified),13,16,8,8.4,19,0.8,16,
CSc1ccc2c(c1)N(CCCN1CCN(c3ccccc3)CC1)c1ccccc1S2,,> 64,> 64,,,,,
CSc1ccc2c(c1)N(CCCN1CCN(C)CC1)c1ccccc1S2,,32,27,,69,,27,Active
c1ccc2c(c1)ccn2CCC1CCCCN1 (stereo unspecified),15,1.6,,7.3,2.9,15,1,inactive
c1ccc2c(c1)ncn2CCC1CCCCN1 (stereo unspecified),,> 64,> 64,,100,,> 100,
CN1CCN(CCCn2ccc3ccccc32)CC1,,> 64,> 64,,,,,
c1ccc2c(c1)Sc1ccccc1N2CCC1CCCCN1 (stereo unspecified),,> 64,> 64,,> 64,,47,
NNC(=O)c1ccncc1 [ISONIAZID],,4,0.125,,0.03,,0.03,
Clc1ccc2c(c1)N(CCC1CCCCN1)c1ccccc1S2 (stereo unspecified),10,16,4,10.7,26,0.9,11,inactive
CN1CCN(CCCN2c3ccccc3Sc3ccccc32)CC1 [PERAZINE],,64,27,,100,,> 100,Active
CSc1ccc2c(c1)N(CCCN1CCN(C3C4CC5CC(C4)CC3C5)CC1)c1ccccc1S2 (stereo unspecified),,4,> 64,,43,,98,
c1ccc2c(c1)c1ccccc1n2CCC1CCCCN1 (stereo unspecified),,> 64,> 64,,,,,
CSc1ccc2c(c1)N(CCC1CCCCN1C)c1ccccc1S2 (stereo unspecified) [THIORIDAZINE],8.2,16,8,4.1,10,1,8,
CN1CCCCC1CCN1c2ccccc2Sc2ccccc21 (stereo unspecified),,32,16,,> 64,,47,
CSc1ccc2c(c1)N(C(=O)CN1CCCCC1)c1ccccc1S2,,,,,> 100,,> 100,
CN1CCCCC1CCn1c2ccccc2c2ccccc21 (stereo unspecified),,> 64,64,,60,,39,
CCCN1CCCCC1CCN1c2ccccc2Sc2ccc(SC)cc21 (stereo unspecified),,> 64,64,,45,,,
Clc1ccc2c(c1)N(CCCN1CCSCC1)c1ccccc1S2,,> 64,> 64,,,,,
Clc1ccc2c(c1)N(CCCN1CCN(c3ccccc3)CC1)c1ccccc1S2,,> 64,> 64,,,,,
CN1CCCCC1CCn1cnc2ccccc21 (stereo unspecified),,> 64,> 64,,,,,
CSc1ccc2c(c1)N(CCC1CCCCN1C(C)C)c1ccccc1S2 (stereo unspecified),,> 64,> 64,,,,,
CSc1ccc2c(c1)N(CCCN1CCN(C34CC5CC(CC(C5)C3)C4)CC1)c1ccccc1S2,,64,64,,,,,
c1ccc(N2CCN(CCCN3c4ccccc4Sc4ccccc43)CC2)cc1,,> 64,> 64,,,,,
CSc1ccc2c(c1)N(CCCN1CCSCC1)c1ccccc1S2,,> 64,> 64,,,,,
CSc1ccc2c(c1)N(C(=O)CN1CCN(C)CC1)c1ccccc1S2,,> 64,> 64,,,,,
CSc1ccc2c(c1)N(CCC1CCCCN1Cc1ccccc1)c1ccccc1S2 (stereo unspecified),,16,8,,> 100,,37,
CSc1ccc2c(c1)N(CCC1CCCCN1)c1ccccc1S2 (stereo unspecified),,16,8,,100,,> 100,
CO[C@H]1/C=C/O[C@@]2(C)Oc3c(C)c(O)c4c(O)c(c(/C=N/N5CCN(C)CC5)c(O)c4c3C2=O)NC(=O)/C(C)=C\C=C\[C@H](C)[C@H](O)[C@@H](C)[C@@H](O)[C@@H](C)[C@H](OC(C)=O)[C@@H]1C [RIFAMPIN],,,0.25,,0.3,,8,
